Seven compounds from PubChem BioAssay (NCI) can be followed below.

Among the test systems are HCT-116 colon; SR leukemia; MALME-3M melanoma; MCF7 breast; HOP-62 NSCLC; TK-10 renal; MOLT-4 leukemia; COLO 205 colon; PC-3 prostate; UACC-62 melanoma; SK-OV-3 ovarian; CAKI-1 renal; UO-31 renal; K-562 leukemia; LOX IMVI melanoma; IGROV1 ovarian; HCC-2998 colon; HCT-15 colon; A549 NSCLC; OVCAR-4 ovarian.
Common to all, as to assay: growth of human tumour cells (NCI), 48 h

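In this assay, cells in 96-well plates receive the compound at five concentrations for 48 hours. Endpoints are linearly interpolated between the surrounding concentrations. Definition used: TGI = concentration required for complete inhibition of growth.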

For the compound `Cc1occc1C(=S)Nc1ccc(Cl)c(/C=N/OC(C)(C)C)c1`, the TGI was 27 µM in the experiment with HCT-116 colon; 35.6 µM in the experiment with SR leukemia; over 56.5 µM in the experiment with MALME-3M melanoma; 42.9 µM in the experiment with MCF7 breast; 45.9 µM in the experiment on HOP-62 NSCLC; 49.8 µM with TK-10 renal. For the same compound, the TGI was found to be 31.8 µM in the experiment on MOLT-4 leukemia; 34.1 µM with COLO 205 colon; 33 µM in the experiment on PC-3 prostate; 28 µM with UACC-62 melanoma; 58.7 µM in the experiment on SK-OV-3 ovarian; 41.1 µM in the experiment with CAKI-1 renal. In addition, the TGI in the experiment with UO-31 renal was 27 µM; in the experiment on K-562 leukemia it was over 100 µM; in the experiment with LOX IMVI melanoma, 29.2 µM; in the experiment on IGROV1 ovarian, over 56.3 µM; in the experiment with HCC-2998 colon, 34.2 µM; in the experiment with HCT-15 colon, 31.2 µM. For the same compound, the TGI with A549 NSCLC worked out at 38.6 µM; with OVCAR-4 ovarian, 45 µM.

Consider `CCC1CCN=C(NS(=O)(=O)c2cc(C)c(Cl)cc2S)N1` (stereo not drawn), for which the TGI in the experiment with HCT-116 colon is 94.6 µM; in the experiment on SR leukemia, over 100 µM; in the experiment on MALME-3M melanoma it was 92.9 µM; in the experiment on MCF7 breast, over 100 µM; with HOP-62 NSCLC, over 100 µM; in the experiment on TK-10 renal, over 100 µM. The TGI with MOLT-4 leukemia was 71.6 µM; with COLO 205 colon it was over 100 µM; in the experiment with PC-3 prostate, over 100 µM; in the experiment on UACC-62 melanoma it was 54.3 µM; in the experiment with SK-OV-3 ovarian, over 100 µM; in the experiment with CAKI-1 renal, over 100 µM. Further, the TGI in the experiment on UO-31 renal was 82.4 µM; in the experiment with K-562 leukemia it was over 100 µM; in the experiment with LOX IMVI melanoma, 53.2 µM; in the experiment with IGROV1 ovarian it was over 100 µM; in the experiment with HCC-2998 colon it was over 100 µM; in the experiment with HCT-15 colon, over 100 µM. The TGI in the experiment on A549 NSCLC and with OVCAR-4 ovarian was over 100 µM throughout.

For the compound `N#Cc1cc([N+](=O)[O-])ccc1NC(=O)/C(=N\NC(=O)c1ccncc1)C(c1cnc2ccc([N+](=O)[O-])cc2n1)[N+](=O)[O-]` (stereo not drawn), the TGI with HCT-116 colon worked out at 7.33 µM; in the experiment with SR leukemia it was 46.8 µM; with MALME-3M melanoma it was 2.61 µM; in the experiment with MCF7 breast, 3.37 µM; in the experiment on HOP-62 NSCLC, 6.8 µM; with TK-10 renal it was 28.3 µM. The TGI is 22.9 µM with MOLT-4 leukemia; 17.9 µM in the experiment with COLO 205 colon; 21.4 µM in the experiment on PC-3 prostate; 2.96 µM in the experiment on UACC-62 melanoma; 20 µM in the experiment on SK-OV-3 ovarian; 17.9 µM in the experiment with CAKI-1 renal. Also, the TGI turned out to be 7.6 µM in the experiment with UO-31 renal; 6.4 µM in the experiment with K-562 leukemia; 2.23 µM in the experiment with LOX IMVI melanoma; 14.2 µM with IGROV1 ovarian; 22.2 µM in the experiment with HCC-2998 colon; 5.22 µM in the experiment on HCT-15 colon. The values for the TGI in the experiment on A549 NSCLC and in the experiment with OVCAR-4 ovarian were 15.8 µM and 5.76 µM, respectively.

In the case of `O=C1C=CC(=O)c2c1ccc1c3ccccc3n(-c3ccccc3)c21`, the TGI was 7.03 µM in the experiment on HCT-116 colon; 1.31 µM with SR leukemia; 16.8 µM in the experiment with MALME-3M melanoma; over 100 µM with MCF7 breast; 37.7 µM in the experiment on HOP-62 NSCLC; 17.8 µM with TK-10 renal. Further, the TGI in the experiment on MOLT-4 leukemia was found to be 2.89 µM; in the experiment on COLO 205 colon it was 22.8 µM; in the experiment on PC-3 prostate, 27 µM; in the experiment with UACC-62 melanoma, 26.2 µM; with SK-OV-3 ovarian, 39.3 µM; with CAKI-1 renal, 19.6 µM. Also, the TGI in the experiment on UO-31 renal is 25.5 µM; in the experiment on K-562 leukemia it was 5.08 µM; with LOX IMVI melanoma, 20.1 µM; in the experiment on IGROV1 ovarian, 34.5 µM; in the experiment with HCC-2998 colon, 50.6 µM; in the experiment with HCT-15 colon, 10.7 µM. Also, the TGI turned out to be 44.2 µM with A549 NSCLC and 27.2 µM in the experiment on OVCAR-4 ovarian.

`COc1ccc(-c2c3c(n(C4OC(COC(C)=O)C(OC(C)=O)C(OC(C)=O)C4OC(C)=O)c(=S)c2C#N)CCC3)cc1` (stereo not drawn): the TGI in the experiment on HCT-116 colon, in the experiment on SR leukemia, in the experiment with MALME-3M melanoma, in the experiment on MCF7 breast, with HOP-62 NSCLC and in the experiment with TK-10 renal was over 100 µM each time. For the same compound, the TGI in the experiment on MOLT-4 leukemia, with COLO 205 colon, with PC-3 prostate, in the experiment with UACC-62 melanoma, in the experiment on SK-OV-3 ovarian and with CAKI-1 renal was over 100 µM each time. The TGI in the experiment on UO-31 renal, in the experiment with K-562 leukemia, in the experiment with LOX IMVI melanoma, in the experiment on IGROV1 ovarian, in the experiment on HCC-2998 colon and in the experiment on HCT-15 colon was over 100 µM throughout. Besides, the TGI in the experiment with A549 NSCLC and in the experiment with OVCAR-4 ovarian was over 100 µM each time.

On to `N#Cc1ccc(CSC2=C(c3ccc(Cl)cc3)S/C(=C3\SC(SCc4ccc(C#N)cc4)=C(c4ccc(Cl)cc4)S3)S2)cc1`, for which the TGI in the experiment on HCT-116 colon, in the experiment on SR leukemia, with MALME-3M melanoma, in the experiment on MCF7 breast, with HOP-62 NSCLC and in the experiment on TK-10 renal was over 100 µM in each case. The TGI in the experiment with MOLT-4 leukemia, in the experiment on COLO 205 colon, with PC-3 prostate, in the experiment on UACC-62 melanoma, in the experiment on SK-OV-3 ovarian and in the experiment on CAKI-1 renal was over 100 µM throughout. In addition, the TGI in the experiment with K-562 leukemia, with LOX IMVI melanoma, in the experiment with IGROV1 ovarian, in the experiment with HCC-2998 colon, with HCT-15 colon and in the experiment on A549 NSCLC was over 100 µM each time. In the experiment on OVCAR-4 ovarian, this compound came in with a TGI of over 100 µM.

For the compound `CN(C)CCCSc1nc2c(c(=N)n1-c1ccccc1)c(=S)n(-c1ccccc1)c(=S)n2-c1ccccc1`, the TGI with HCT-116 colon was 3.46 µM; in the experiment with SR leukemia, 1.07 µM; with MALME-3M melanoma, 3.6 µM; with MCF7 breast it was over 100 µM; in the experiment on HOP-62 NSCLC it was 3.4 µM; with TK-10 renal, 3.09 µM. The TGI with MOLT-4 leukemia was found to be 3.28 µM; in the experiment on COLO 205 colon, 3.94 µM; in the experiment with PC-3 prostate, 3.14 µM; in the experiment with UACC-62 melanoma, 3.23 µM; in the experiment with SK-OV-3 ovarian, 6.86 µM; with CAKI-1 renal it was 3.16 µM. The TGI is 3.81 µM with K-562 leukemia; 2.87 µM in the experiment with LOX IMVI melanoma; 3.14 µM in the experiment on IGROV1 ovarian; 2.82 µM in the experiment with HCC-2998 colon; 3.32 µM in the experiment with HCT-15 colon; 4.58 µM in the experiment with A549 NSCLC. In addition, the TGI in the experiment with OVCAR-4 ovarian is 3.42 µM.
